Patent publication US11203586B2, “Iridinesulfonamide compound and use method thereof” (Chia Tai Tianqing Pharmaceutical Group Co., Ltd., priority 2016, dated 2021)

Assays:
IDH1 (R132H) [1] = biological target: T1, IDH1 (R132H) (Homo sapiens (Human), UniProt O75874, R132H); assay: Enzyme assay, NADPH decrease detected with Diaphorase/Resazurin; assay type: biochemical; conditions: 40 nM enzyme, 20 μM NADPH, incubated at 23° C. for 16 hours before α-KG; 12 concentrations
From the text: (§1) Resazurin is a traditional redox dye, and after a redox reaction, it can be reduced from a blue resazurin without fluorescence to a pink fluorescent substance, resorufin, which can be measured and quantified with relative fluorescence unit (RFU) of fluorophotometer (Ex=530-570 nm, Em=590-620 nm). At present, resazurin is widely used for determining the viability of bacteria, cells, etc. and the enzyme activity detection of oxidoreductase. We detected the decrease of cofactor NADPH to determine the inhibitory activity of a compound against IDHm and detected the generation of cofactor NADPH to determine the inhibitory activity of a compound against IDH WT.
(§2) The compound was pre-incubated with IDHm and NADPH, and then the reaction was initiated by adding α-KG and performed for certain time under a linear condition.
(§3) Then, Diaphorase (lipoamide dehydrogenase) and the corresponding substrate Resazurin were added thereto for detection. Lipoamide dehydrogenase terminated the IDH2m reaction by decreasing the available cofactor NADPH, which oxidized NADPH to NADP, and reduced resazurin to high fluorescent resorufin. The amount of the remaining cofactor NADPH after a specific reaction time was quantified via an easily detectable fluorophore.
(§4) The specific operation was as follows: 2.5 μl of the compound diluted in a 3-fold gradient was added to a 384-well plate, followed by adding 5 μL of the reaction buffer (20 mM Tris-HCl, pH 7.5; 150 mM NaCl; 10 mM MgCl2; 0.4 mg/mL BSA (Bovine Serum Albumin) and 2 mM DTT (dithiothreitol)) containing 40 nM IDH1 (R132H/R132C) and 20 μM NADPH. Then, the above test mixture was incubated at 23° C. for 16 hours, and then 2.5 μL of the reaction buffer containing 4 mM α-KG was added to initiate the reaction. After they were incubated for 60 minutes at room temperature, 5 μL of the termination mixture (0.4 U/ml Diaphorase and 20 μM Resazurin) formulated with the reaction buffer was added to convert resazurin to resorufin, so as to measure the amount of the remaining NADPH. After incubating at 23° C. for 10 minutes, fluorescence values were determined through Flexstation 3 at Ex535/Em595. The enzyme activity of each compound was respectively determined at 12 concentrations, and the data were calculated using the software GraFit6.0 (Erithacus Software) to obtain the IC50 value of each compound.

IDH1 (R132H) [2] = biological target: T1, IDH1 (R132H); assay: Binding mode determination, free compound by LC-MS/MS; conditions: incubated with IDH1 (R132H), FIG. 1
Experimental: The compounds were incubated with IDH1 (R132H), and then divided into N parts. The reaction was terminated by adding acetonitrile at different time points, and the organic phase was separated by centrifugation. The resulting samples were stored at −80° C. until analysis, and the concentration of the compounds in free from were analyzed by LC-MS/MS, mobile phase A: water (0.1% of formic acid), B: acetonitrile (0.1% of formic acid), strong needle wash solution: acetonitrile:water=9:1, weak needle wash solution: acetonitrile:water=1:9.

Pharmacokinetic test = assay type: in vivo; conditions: male SD rats, oral 5 mg/kg
Experimental: Male SD rats were from Beijing Vital River Laboratory Animal Technology Co., Ltd., and divided into groups (3 rats per group). The rats were intragastically administered with the test sample suspension (5 mg/kg) via a single peroral administration, respectively. The animals were fasted overnight before this study. The fasting time period was from 10 hours before administration to 4 hours after administration. Blood samples were taken at 0.25, 0.5, 1, 2, 4, 6, 8 and 24 hours after administration. After the rats were anesthetized with isoflurane using an anesthesia machine for small animal, and then 0.3 mL whole blood samples were taken from the fundus venous plexus. The blood samples were placed in heparin anticoagulant tubes, and centrifuged for 5 min at 4° C. and 4000 rpm. The plasma was transferred to centrifuge tubes, and stored at −80° C. until analysis. The samples in plasma were extracted through protein precipitation. The liquid extract was analyzed by LC-MS/MS, mobile phase A: water (0.1% of formic acid), B: acetonitrile (0.1% of formic acid), strong needle wash solution: acetonitrile:water=9:1, weak needle wash solution: acetonitrile:water=1:9.

IDH1 (R132C) = IDH1 (R132C) (Homo sapiens (Human), UniProt O75874, R132C); assay: Enzyme assay, NADPH decrease detected with Diaphorase/Resazurin; assay type: biochemical; conditions: 40 nM enzyme, 20 μM NADPH, incubated at 23° C. for 16 hours before α-KG; 12 concentrations
From the text: as §1, §2, §3, §4

[3] = rat, 0.5% MC, 0.2% Tween80, plasma

T1 sequence (O75874 whole entry R132H): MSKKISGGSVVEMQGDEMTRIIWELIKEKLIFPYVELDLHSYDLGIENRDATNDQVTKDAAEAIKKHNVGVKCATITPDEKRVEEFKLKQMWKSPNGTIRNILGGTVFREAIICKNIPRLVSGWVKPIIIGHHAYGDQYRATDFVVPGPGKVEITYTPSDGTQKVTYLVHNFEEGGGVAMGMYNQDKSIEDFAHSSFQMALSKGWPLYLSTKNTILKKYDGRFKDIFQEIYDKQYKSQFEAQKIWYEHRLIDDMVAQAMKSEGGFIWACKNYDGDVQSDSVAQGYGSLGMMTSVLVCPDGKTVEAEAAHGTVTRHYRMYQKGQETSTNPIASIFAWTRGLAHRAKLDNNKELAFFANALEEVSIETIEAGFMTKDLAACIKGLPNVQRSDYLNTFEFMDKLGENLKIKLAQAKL
IDH1 (R132C), sequence (O75874 whole entry R132C): as the sequence (O75874 whole entry R132H) above, with H132C counted along it

| IC50 (IDH1 (R132H) [1]) [nM] | Structure (SMILES) | further results |
| --- | --- | --- |
| < 20 | O=C(NC1CC(F)(F)C1)[C@H](c1ccccc1Cl)N(C(=O)[C@@H]1CCN(S(=O)(=O)N2CC2)C1)c1cccc(F)c1 [Example 36, (R)-1-(aziridin-1-ylsulfonyl)-N—((S)-1-(2-chlorophenyl)-2-((3,3-difluorocyclobutyl)amino)-2-oxoethyl)-N-(3-fluorophenyl)pyrrolidine-3-carboxamide] | – |
| < 20 | O=C(NC1CC(F)(F)C1)C(c1ccccc1Cl)N(C(=O)CNS(=O)(=O)N1CC1)c1cccc(F)c1 (stereo not shown) [Example 10, 2-(aziridine-1-sulfonylamino)-N-(1-(2-chlorophenyl)-2-((3,3-difluorocyclobutyl)amino)-2-oxoethyl)-N-(3-fluorophenyl)acetamide] | binding of the compound to the enzyme over time (IDH1 (R132H) [2]): increased over time; drug concentration in vivo over time (Pharmacokinetic test; PK curve FIG. 2): decreased drug concentration in vivo over time; Cmax (Pharmacokinetic test; [3]): 508 ng/mL; Tmax (Pharmacokinetic test; [3]): 15 min; half-life (Pharmacokinetic test; [3]): 90 min; AUC(0-inf) (Pharmacokinetic test; rat, 0.5% MC, 0.2% Tween80, plasma, read-out: AUCINF—obs): 794 ng·h/mL |
| < 20 | O=C(NC1CCCCC1)C(c1ccccc1Cl)N(C(=O)CCCCS(=O)(=O)N1CC1)c1cccc(F)c1 (stereo not shown) [Example 20, 5-(aziridin-1-ylsulfonyl)-N-(1-(2-chlorophenyl)-2-(cyclohexylamino)-2-oxoethyl)-N-(3-fluorophenyl)pentanamide] | – |
| < 20 | O=C(NC1CC(F)(F)C1)[C@H](c1ccccc1Cl)N(C(=O)CNS(=O)(=O)N1CC1)c1cccc(F)c1 [Example 25, (S)-2-(aziridine-1-sulfonylamino)-N-(1-(2-chlorophenyl)-2-((3,3-difluorocyclobutyl)amino)-2-oxoethyl)-N-(3-fluorophenyl)acetamide] | IC50 (IDH1 (R132C)): < 20 nM |
| < 1000 | O=C(NC1CC(F)(F)C1)[C@@H](c1ccccc1Cl)N(C(=O)[C@@H]1CCN(S(=O)(=O)N2CC2)C1)c1cccc(F)c1 [Example 37, (R)-1-(aziridin-1-ylsulfonyl)-N—((R)-1-(2-chlorophenyl)-2-((3,3-difluorocyclobutyl)amino)-2-oxoethyl)-N-(3-fluorophenyl)pyrrolidine-3-carboxamide] | – |
| < 20 | O=C(NC1CC(F)(F)C1)C(c1ccccc1Cl)N(C(=O)CCS(=O)(=O)N1CC1)c1cccc(F)c1 (stereo not shown) [Example 14, 3-(aziridin-1-ylsulfonyl)-N-(1-(2-chlorophenyl)-2-((3,3-difluorocyclobutyl)amino)-2-oxoethyl)-N-(3-fluorophenyl)propanamide] | – |
| < 20 | O=C(NC1CC(F)(F)C1)[C@@H](c1ccccc1Cl)N(C(=O)[C@H]1CCN(S(=O)(=O)N2CC2)C1)c1cccc(F)c1 [Example 35, (S)-1-(aziridin-1-ylsulfonyl)-N—((R)-1-(2-chlorophenyl)-2-((3,3-difluorocyclobutyl)amino)-2-oxoethyl)-N-(3-fluorophenyl)pyrrolidine-3-carboxamide] | – |

Second part, the compound before the results:

| Structure (SMILES) | IC50 (IDH1 (R132H) [1]) [nM] | further results |
| --- | --- | --- |
| O=C(NC1CCCCC1)C(c1ccccc1Cl)N(C(=O)C1CC(NS(=O)(=O)N2CC2)C1)c1cccc(F)c1 (stereo not shown) [Example 22, 3-(aziridine-1-sulfonylamino)-N-(1-(2-chlorophenyl)-2-cyclohexylamino-2-oxoethyl)-N-(3-fluorophenyl)cyclobutyl carboxamide] | < 20 | – |
| CC(C)[C@@H]1CN1S(=O)(=O)N(CC(=O)N(c1cccc(F)c1)C(C(=O)NC1CCCCC1)c1ccccc1Cl)C(=O)OC(C)(C)C (stereo partly shown) [Example 7] | < 10000 | – |
| O=C(NC1CCCCC1)C(c1ccccc1Cl)N(C(=O)CS(=O)(=O)N1CC1)c1cccc(F)c1 (stereo not shown) [Example 15, 2-(aziridin-1-ylsulfonyl)-N-(1-(2-chlorophenyl)-2-(cyclohexylamino)-2-oxoethyl)-N-(3-fluorophenyl)acetamide] | < 20 | – |
| O=C(NC1CC(F)(F)C1)C(c1ccccc1Cl)N(C(=O)CNS(=O)(=O)N1CC1)c1ccc(F)c(F)c1 (stereo not shown) [Example 29, 2-(aziridine-1-sulfonylamino)-N-(1-(2-chlorophenyl)-2-((3,3-difluorocyclobutyl)amino)-2-oxoethyl)-N-(3,4-difluorophenyl)acetamide] | < 20 | – |
| O=C(NC1CCCCC1)[C@@H](c1ccccc1Cl)N(C(=O)[C@@H]1CCCN1S(=O)(=O)N1CC1)c1cccc(F)c1 [Example 18, (S)-1-(aziridin-1-ylsulfonyl)-N—((R)-1-(2-chlorophenyl)-2-(cyclohexylamino)-2-oxoethyl)-N-(3-fluorophenyl)pyrrolidine-2-carboxamide] | < 10000 | – |
| C[C@H]1CN1S(=O)(=O)NCC(=O)N(c1cccc(F)c1)C(C(=O)NC1CCCCC1)c1ccccc1Cl (stereo partly drawn) [Example 32, 2-(2-chlorophenyl)-N-cyclohexyl-2-(N-(3-fluorophenyl)-2-(((S)-2-methylaziridine)-1-sulfonylamino)acetamido)acetamide] | < 20 | – |
| C[C@H](NS(=O)(=O)N1CC1)C(=O)N(c1cccc(F)c1)C(C(=O)NC1CCCCC1)c1ccccc1Cl (stereo partly shown) [Example 2, (2)-2-(aziridine-1-sulfonylamino)-N-(1-(2-chlorophenyl)-2-(cyclohexylamino)-2-oxoethyl)-N-(3-fluorophenyl)propanamide] | < 500 | – |
| O=C(NC1CCCCC1)C(c1ccccc1Cl)N(C(=O)C1CN(S(=O)(=O)N2CC2)C1)c1cccc(F)c1 (stereo not shown) [Example 24, 1-(aziridin-1-ylsulfonyl)-N-(1-(2-chlorophenyl)-2-cyclohexylamino-2-oxoethyl)-N-(3-fluorophenyl)azetidine-3-carboxamide] | < 20 | – |
